This is an account of results in US7179934B2, “Amino acids with affinity for the α2δ-protein” (Warner-Lambert Company LLC, priority 2003, dated 2007).

The structures appear in SMILES notation.

The subject of this experiment is α2δ-subunit derived from porcine brain tissue. Put plainly: radioligand binding assay using [3H]-gabapentin. To be noted: [3H]-gabapentin radioligand. An excerpt:
The ability of compounds of the present invention to bind to the α2δ-subunit of a calcium channel can be determined using the following binding assay.
The radioligand binding assay using [^3H]-gabapentin and the α2δ-subunit derived from porcine brain tissue was used. See Nicolas S. Gee et al., “The novel anticonvulsant drug, gabapentin (Neurontin), binds to the α2δ subunit of a calcium channel,” J. Biol. Chem. 271 (10):5768–76 (1996). Compounds of the invention bind with nanomolar to micromolar affinity for the α2δ protein.

Take `CCCCC(CC)CCC(CN)C(=O)O` (stereo not shown) [2-aminomethyl-5-ethyl-nonanoic acid]: the “affinity to the α2δ protein” value was 75 nM.
